Columns and labels:
Type in all cases: cell-based, human
[1] = test system: differentiated SH-SY5Y cells; assay: Neutral red (NR) uptake cytotoxicity assay; conditions: for EC50: Homo sapiens; for EC20 (concentration inducing 20% of cytotoxicity) / EC80 (concentration inducing 80% of cytotoxicity): NR uptake; for Bottom (baseline, % control) / Top (maximal cell death, % control): fitted NR curve, SH-SY5Y cells
Procedure: (§1) The cells were seeded at a density of 25,000 cells/cm^2. To achieve a more mature neuron-like phenotype, SH-SY5Y cells were initially cultured in a complete medium supplemented with RA (10 µM). Subsequently, 3 days post-seeding, TPA (80 nM) was added to each well, and the cells were maintained for another 3 days until use, thus achieving a dopaminergic phenotype. In all the experiments, the cells were used between passages 22 and 28.
(§2) The differentiated SH-SY5Y cells (25,000 cells/cm^2) and primary rat cortical cultures (150,000 cells/cm^2) were seeded onto 96-well plates as previously described.
(§3) Accordingly, 6 days after seeding (differentiated SH-SY5Y cells) or at 8 DIV (primary cultures), the cells were exposed, for 24 h (37 °C, 5% CO2), to different concentrations of the drugs (0–1000 µM). Thus, the tested concentrations ranged from 0 to 1000 µM for 2C-T-2 and 2C-T-4; 0 to 500 µM for 2C-T-7; 0 to 250 µM for 25T2-NBOMe, and 0 to 100 µM for 25T4-NBOMe and 25T7-NBOMe.
The NR uptake assay is based on the detection of viable cells through the incorporation of the NR dye by the cell’s lysosomes. In brief, after 24 h of exposure to the tested drugs, the differentiated SH-SY5Y cells and primary rat cortical cultures were incubated with NR (50 µg/mL in complete medium) for 90 or 210 min, respectively, at 37 °C, in a 5% CO2-95% air atmosphere. To extract the absorbed dye, an acidified ethanol solution was used, and the absorbance was then measured at 540 nm in a multi-well plate reader (PowerWaveX, BioTek Instruments, Winooski, VT, USA). The cytotoxicity was estimated by the percentage of NR uptake relative to the control cells, and a minimum of 4 independent experiments were conducted in triplicate.

[2] = test system: differentiated SH-SY5Y cells; assay: MTT reduction cytotoxicity assay; conditions: for EC50: Homo sapiens, differentiated SH-SY5Y cells, 24 h of exposure, mean (95% CI); for Bottom (baseline, % control) / Top (maximal cell death, % control): fitted MTT curve, SH-SY5Y cells, 24 h
Procedure: as §1, §2, §3
The MTT reduction assay is based on the capacity of metabolically active cells to reduce the water-soluble yellow tetrazolium dye (MTT) into water-insoluble formazan crystals. In brief, after 24 h of exposure to the tested drugs, the differentiated SH-SY5Y cells were incubated with MTT (0.5 mg/mL in complete medium) for 90 min, at 37 °C, in a 5% CO2-95% air atmosphere. To solubilize the formed formazan crystals, an organic solvent (DMSO) was used, and the absorbance was then measured at 550 nm in a multi-well plate reader (PowerWaveX, BioTek Instruments, Winooski, VT, USA). The cytotoxicity was estimated by the percentage of MTT reduction relative to the control cells, and a minimum of 4 independent experiments were conducted in triplicate.

[3] = test system: differentiated SH-SY5Y cells; assay: Mitochondrial membrane potential, JC-1 dye; conditions: control 100.0%
Source text: Mitochondrial membrane potential (ΔΨm) is a valuable parameter that reflects the energy status and functional integrity of cells, and the JC-1 dye is widely used as an indicator of ΔΨm. In healthy cells with high ΔΨm, JC-1 forms J-aggregates that emit red fluorescence. In apoptotic or unhealthy cells with low ΔΨm, JC-1 remains in its monomeric form and emits green fluorescence. The ratio of red to green fluorescence intensity is proportional to the degree of polarization of the mitochondrial membrane (a higher ratio indicates a more polarized membrane).
Thus, the SH-SY5Y cells were seeded onto 24-well plates (25,000 cells/cm^2) following the previously described seeding and differentiation protocol. On the day of the experiment, the cells were exposed to different concentrations of the tested drugs (EC20 and EC50) for 24 h (37 °C, 5% CO2). CCCP (100 µM, 2 h) was used as a positive control for mitochondrial membrane depolarization. At the end of the incubation period, the medium was removed, and the cells were incubated, for 30 min, with 10 µM JC-1 under light protection (37 °C, 5% CO2). Subsequently, the plates were centrifuged (5 min, 300× g, room temperature), the supernatants were rejected, and the cells were washed 2 times with warm HBSS with calcium and magnesium. Fluorescence was recorded at the wavelengths of 485 nm excitation and 535 nm emission for JC-1 monomers and 535 nm excitation and 595 nm emission wavelengths for J-aggregates in a multi-well plate reader (PowerWaveX, BioTek Instruments, Winooski, VT, USA). The results are presented as the percentage of JC-1 red/green fluorescence ratio relative to the control cells, and a minimum of 5 independent experiments were conducted in triplicate.

[4] = test system: differentiated SH-SY5Y cells; assay: Intracellular ATP levels, luciferin-luciferase bioluminescence
Procedure: Adenosine triphosphate (ATP) is often considered the primary energy currency of cells, being essential for several cellular activities, such as active transport, metabolism, and cell signaling, among many others. The intracellular ATP levels were measured using a bioluminescence method, consisting of the reaction between luciferin and ATP in the presence of luciferase, where the resulting light intensity is directly proportional to the amount of ATP present in the cells.
Thus, the SH-SY5Y cells were seeded onto 6-well plates (25,000 cells/cm^2) following the previously described seeding and differentiation protocol. On the day of the experiment, the cells were exposed to different concentrations of the tested drugs (EC20 and EC50) for 24 h (37 °C, 5% CO2). At the end of the incubation period, the cells were centrifuged (5 min, 250× g, 4 °C), the supernatants were rejected, and proteins were precipitated with 5% HClO4 for at least 30 min (4 °C). Subsequently, the acidic samples were collected from the plates, centrifuged (5 min, 16,000× g, 4 °C), and the supernatants were stored until further ATP analysis (−80 °C). To assess protein content, the pellets were resuspended in 1 M NaOH, maintained at 4 °C overnight, and stored until further analysis (−20 °C). A Bio-Rad DC™ protein assay kit (Bio-Rad Laboratories, Hercules, CA, USA) was used to analyze protein content, in accordance with the manufacturer’s guidelines.
Before the ATP quantification, the acidic samples were diluted (1:5) with 5% HClO4, and the diluted samples/standards were neutralized with an ice-cold KHCO3 solution (1:1) and centrifuged (16,000× g, 5 min, 4 °C). Then, 75 µL of each sample/standard supernatant was transferred into a white 96-well plate, 75 µL of a luciferin (300 µM)-luciferase (3,000,000 U/mL) solution (10–90%, respectively) was added, and bioluminescence (560 nm, 28 °C) was immediately measured in a multi-well plate reader (PowerWaveX, BioTek Instruments, Winooski, VT, USA).
ATP levels were standardized to protein content. The results are presented as a percentage relative to the control cells (0 µM). A minimum of 6 independent experiments were conducted in duplicate.

[5] = bound stated for both SH-SY5Y cells and primary rat cortical cultures, 24 h, read-out: EC50 values, NR uptake assay, both cellular models
[6] = differentiated SH-SY5Y cells, 24 h of exposure, mean (95% CI), read-out: NR EC50 Values
[7] = differentiated SH-SY5Y cells, 24 h, mean (95% CI)

Compound	EC50 [1, 5] [µM]	EC50 [1, 6] [µM]	EC20 (concentration inducing 20% of cytotoxicity) [1, 7]	EC80 (concentration inducing 80% of cytotoxicity) [1, 7]	Bottom (baseline, % control) ([1]; 24 h) [% control]	Top (maximal cell death, % control) ([1]; 24 h) [% control]	EC50 [2] [µM]	Bottom (baseline, % control) [2] [% control]	Top (maximal cell death, % control) [2] [% control]	mitochondrial membrane polarization (JC-1 red/green ratio), % of the control cells ([3]; drug at its EC20, 24 h) [%]	mitochondrial membrane polarization (JC-1 red/green ratio), % of the control cells ([3]; drug at its EC50, 24 h) [%]	decrease of intracellular ATP levels relative to control cells ([4]; drug at its EC20, 24 h) [%]	decrease of intracellular ATP levels relative to control cells ([4]; drug at its EC50, 24 h) [%]
CCSc1cc(OC)c(CCN)cc1OC.Cl [2C-T-2, 2-(4-(ethylthio)-2,5-dimethoxyphenyl)ethan-1-aminium chloride]	> 215	246	123.2 (107.1 to 138.8) μM	491.0 (413.7 to 514.4) μM	4.054	100.0	306	4.516	97.13	58.4	55.2	18.1	24.8
CCSc1cc(OC)c(CCNCc2ccccc2OC)cc1OC.Cl [25T2-NBOMe, 2-(4-(ethylthio)-2,5-dimethoxyphenyl)-N-(2-methoxybenzyl)ethan-1-aminium chloride]	> 25	37.4	–	–	1.962	98.41	46.8	3.123	95.97	78.7	74.3	16.0	23.5
COc1cc(SC(C)C)c(OC)cc1CCNCc1ccccc1OC.Cl [25T4-NBOMe, 2-(4-(isopropylthio)-2,5-dimethoxyphenyl)-N-(2-methoxybenzyl)ethan-1-aminium chloride]	–	35.7	–	–	–	100.0	36	1.753	100.0	83.5	70.5	14.6	21.8
CCCSc1cc(OC)c(CCN)cc1OC.Cl [2C-T-7, 2-(2,5-dimethoxy-4-(propylthio)phenyl)ethan-1-aminium chloride]	< 75	74.5	39.5 (34.4 to 44.4) μM	140.5 (125.4 to 161.2) μM	6.754	97.99	92.3	5.625	100.0	50.8	50.0	16.9	24.1
COc1cc(SC(C)C)c(OC)cc1CCN.Cl [2C-T-4, 2-(4-(isopropylthio)-2,5-dimethoxyphenyl)ethan-1-aminium chloride]	–	154	81.5 (79.9 to 92.1) μM	291.4 (255.9 to 342.3) μM	5.069	96.98	191	4.106	99.28	58.3	56.1	17.8	28.7
CCCSc1cc(OC)c(CCNCc2ccccc2OC)cc1OC.Cl [25T7-NBOMe, 2-(2,5-dimethoxy-4-(propylthio)phenyl)-N-(2-methoxybenzyl)ethan-1-aminium chloride]	< 22	21.8	–	–	8.660	94.74	23.3	2.444	96.91	90.8	76.8	12.0	21.4

Source: paper PMC11204507, “Mechanistic Insights into the Neurotoxicity of 2,5-Dimethoxyphenethylamines (2C) and Corresponding N-(2-methoxybenzyl)phenethylamine (NBOMe) Drugs” (Journal of Xenobiotics, 2024)
